Results from US20070243215A1, “Adjuvant for Dna Vaccines” (priority 2004, published 2007).

Tested on: N202/1A tumor cells
Assay: Serum transfer and tumor cell challenge
Assay type: in vivo
Settings: 150 μL pooled serum from treated donor mice; challenge 24 h later subcutaneously with 10^5 N202/1A tumor cells
Description: Animals were treated as in Example 1 for each of the following groups: (1) Immunized with pCMV-ECD-TM, not treated with IRM (HER-2/neu); (2) Immunized with pCMV-ECD-TM, treated with IRM2 (IRM+HER-2/neu); or (3) untreated (Control). Two weeks after the immunization period was completed, sera were harvested from the animals and pooled among animals receiving the same treatment.
150 μL of pooled serum was injected into eight-week old animals (5 animals/treatment serum). Twenty-four hours after administration of the serum, each mouse was challenged with subcutaneously with 10^5 N202/1A tumor cells and monitored to register the development of tumors.

Compound: CC(C)Cn1cnc2c(N)nc3ccccc3c21 [IRM2, 1-(2-methylpropyl)-1H-imidazo[4,5-c]quinolin-4-amine]
- percentage of recipient mice remaining tumor free (protection against tumor development): An even greater percentage
